Assay results published in patent US12162858B2, “Quinoline derivatives as inhibitors of AXL/MER RTK and CSF1R” (QURIENT CO., LTD., priority 2018, dated 2024).
pKd: −log10 of the molar value.

What was measured:
Mer = target: T1, Mer (Homo sapiens, UniProt Q12866); assay: LanthaScreen Eu kinase binding assay for Mer; conditions: read-out: Mer kinase binding activity (Kd)
T1 construct: purchased Life Technologies
T1 sequence (Q12866 21-999): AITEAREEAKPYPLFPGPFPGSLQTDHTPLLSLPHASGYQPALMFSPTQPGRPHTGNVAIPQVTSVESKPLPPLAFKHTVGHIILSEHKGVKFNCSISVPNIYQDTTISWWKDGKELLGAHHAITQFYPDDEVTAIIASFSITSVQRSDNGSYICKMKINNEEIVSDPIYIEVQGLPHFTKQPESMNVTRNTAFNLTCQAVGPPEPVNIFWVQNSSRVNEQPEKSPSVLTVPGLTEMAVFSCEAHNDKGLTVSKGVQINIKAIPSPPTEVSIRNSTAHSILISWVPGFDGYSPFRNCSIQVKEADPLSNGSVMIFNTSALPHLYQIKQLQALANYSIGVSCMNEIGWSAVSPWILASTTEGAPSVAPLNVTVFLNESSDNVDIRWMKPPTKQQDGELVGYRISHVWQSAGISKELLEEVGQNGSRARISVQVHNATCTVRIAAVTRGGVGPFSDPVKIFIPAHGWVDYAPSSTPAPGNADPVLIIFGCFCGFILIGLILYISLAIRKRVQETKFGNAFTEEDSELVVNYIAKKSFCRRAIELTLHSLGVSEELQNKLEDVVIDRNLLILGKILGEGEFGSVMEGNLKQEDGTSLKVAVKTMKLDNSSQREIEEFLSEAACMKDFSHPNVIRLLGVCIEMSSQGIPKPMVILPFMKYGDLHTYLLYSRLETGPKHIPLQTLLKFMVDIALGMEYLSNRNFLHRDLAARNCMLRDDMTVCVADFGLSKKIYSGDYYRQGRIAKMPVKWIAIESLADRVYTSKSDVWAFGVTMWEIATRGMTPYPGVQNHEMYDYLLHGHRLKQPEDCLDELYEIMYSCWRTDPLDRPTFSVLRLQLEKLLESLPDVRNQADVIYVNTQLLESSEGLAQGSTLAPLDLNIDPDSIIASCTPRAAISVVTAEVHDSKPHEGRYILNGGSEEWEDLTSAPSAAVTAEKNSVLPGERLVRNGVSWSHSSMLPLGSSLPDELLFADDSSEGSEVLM
Summary of the method: (§1)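 Competitive displacement of Alexa Fluor 647-labeled Tracer 236 from the kinase, with binding detected by TR-FRET with a Eu-labeled anti-GST antibody. Compounds were run as 8-step DMSO serial dilutions and incubated 1 h at room temperature. Kd was calculated relative to DMSO vehicle control wells.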

Axl = target: T2, Axl (Homo sapiens, UniProt P30530); assay: LanthaScreen Eu kinase binding assay for Axl; conditions: read-out: Axl kinase binding activity (Kd)
T2 sequence (P30530 26-894): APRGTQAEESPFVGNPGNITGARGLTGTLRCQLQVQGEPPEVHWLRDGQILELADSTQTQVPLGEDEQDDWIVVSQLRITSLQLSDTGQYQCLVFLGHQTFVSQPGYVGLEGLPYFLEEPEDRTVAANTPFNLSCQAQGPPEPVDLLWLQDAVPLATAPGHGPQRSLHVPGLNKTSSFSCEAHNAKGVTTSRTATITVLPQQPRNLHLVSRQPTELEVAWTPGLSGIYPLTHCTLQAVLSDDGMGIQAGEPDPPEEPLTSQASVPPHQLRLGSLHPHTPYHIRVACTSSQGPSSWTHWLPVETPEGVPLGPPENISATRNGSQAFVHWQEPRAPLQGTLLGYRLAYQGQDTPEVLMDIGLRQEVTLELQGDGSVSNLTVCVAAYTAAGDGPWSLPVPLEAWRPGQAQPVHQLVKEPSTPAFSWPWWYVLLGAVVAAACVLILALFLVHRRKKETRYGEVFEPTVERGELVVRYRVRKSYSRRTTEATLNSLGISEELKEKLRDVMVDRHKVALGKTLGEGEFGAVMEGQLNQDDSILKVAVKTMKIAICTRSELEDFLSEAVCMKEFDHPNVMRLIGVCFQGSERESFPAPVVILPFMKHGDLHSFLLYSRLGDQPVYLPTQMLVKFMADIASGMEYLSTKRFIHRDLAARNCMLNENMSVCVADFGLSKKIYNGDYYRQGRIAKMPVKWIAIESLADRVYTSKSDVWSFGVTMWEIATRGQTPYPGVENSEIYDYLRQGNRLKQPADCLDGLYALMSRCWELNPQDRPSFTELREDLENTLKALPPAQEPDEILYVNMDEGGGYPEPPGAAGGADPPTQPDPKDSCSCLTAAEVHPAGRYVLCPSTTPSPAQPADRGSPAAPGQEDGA
Summary of the method: as §1

`CCCn1cc(OCC2CCC2)c(C(=O)Nc2ccc(Oc3ccnc4cc(OC)c(OC(F)(F)F)cc34)cn2)n1` [Compound 167] was tested, and the pKd (Mer) was greater than 7.00 and the pKd (Axl) was greater than 7.00.
With `COc1cc2nccc(Oc3ccc(NC(=O)c4nn(CCO)cc4OCC(F)(F)F)nc3)c2cc1OC` [Compound 67] the pKd (Mer) was greater than 7.00 and the pKd (Axl) was greater than 7.00.
`COc1cc2nccc(Oc3ccc(NC(=O)c4nn(C5CCC5)cc4OCC(F)(F)F)nc3)c2cc1OC` [Compound 24] was tested, and the pKd (Mer) was greater than 7.00 and the pKd (Axl) was greater than 7.00.
`COc1cc2nccc(Oc3ccc(NC(=O)c4nn(C5CCCC5)cc4OCC(F)(F)F)cc3)c2cc1OC` [Compound 60] was tested, and the pKd (Mer) was greater than 7.00 and the pKd (Axl) was greater than 7.00.
In the case of `CCCn1cc(OCC(F)(F)F)c(C(=O)Nc2ccc(Oc3ccnc4cc(OC)c(OC)cc34)nn2)n1` [Compound 32], the pKd (Mer) was greater than 7.00 and the pKd (Axl) was greater than 7.00.
`COc1cc2nccc(Oc3ccc(NC(=O)c4nc(CCC(F)(F)F)oc4CCC4CCC4)nc3)c2cc1OC` [Compound 176] was tested, and the pKd (Mer) was 6.30 to 7.00 and the pKd (Axl) was 6.30 to 7.00.
`CCCn1cc(OCCC(F)(F)F)c(C(=O)Nc2ccc(Oc3ccnc4cc(OC)c(OC)cc34)cn2)n1` [Compound 31] gave a pKd (Mer) greater than 7.00 and a pKd (Axl) greater than 7.00.
In the case of `CCCn1cc(OCC(F)(F)F)c(C(=O)Nc2ccc(Oc3ccnc4cc(OC)c(OC)cc34)cc2)n1` [Compound 38], the pKd (Mer) was greater than 7.00 and the pKd (Axl) was greater than 7.00.
In the case of `CCCn1cc(OCCF)c(C(=O)Nc2ccc(Oc3ccnc4cc(OC)c(OC)cc34)cn2)n1` [Compound 14], the pKd (Mer) was greater than 7.00 and the pKd (Axl) was greater than 7.00.
`COc1cc2nccc(Oc3ccc(NC(=O)c4nn(CCO)cc4OCC(F)(F)F)cc3C)c2cc1OC` [Compound 56] showed a pKd (Mer) greater than 7.00 and a pKd (Axl) of 6.30 to 7.00.
With `COc1cc2nccc(Oc3ccc(NC(=O)c4nn(CC(C)C)cc4OCC(F)(F)F)cc3C)c2cc1OC` [Compound 58] the pKd (Mer) was greater than 7.00 and the pKd (Axl) was greater than 7.00.
Compound `COc1cc2nccc(Oc3ccc(NC(=O)c4nn(C5CC5)c(C(C)=O)c4OCC(F)(F)F)nc3)c2cc1OC` [Compound 3] has a pKd (Mer) greater than 7.00 and a pKd (Axl) greater than 7.00.
For `COc1cc2nccc(Oc3ccc(NC(=O)c4nn(CC5CCCC5)cc4OCC(F)(F)F)nc3)c2cc1OC` [Compound 71], the pKd (Mer) was greater than 7.00 and the pKd (Axl) was greater than 7.00.
In the case of `COCCn1cc(OCC(F)(F)F)c(C(=O)Nc2ccc(Oc3ccnc4cc(OC)c(OC)cc34)cc2)n1` [Compound 61], the pKd (Mer) was greater than 7.00 and the pKd (Axl) was greater than 7.00.
In the case of `COc1cc2nccc(Oc3ccc(NC(=O)c4cc(C5CC5)cnc4OCC(F)(F)F)nc3)c2cc1OC` [Compound 178], the pKd (Mer) was greater than 7.00 and the pKd (Axl) was greater than 7.00.
Work on `CCCn1cc(OC(C)C)c(C(=O)Nc2ccc(Oc3ccnc4cc(OC)c(OC(F)(F)F)cc34)c(F)c2)n1` [Compound 35] yielded a pKd (Mer) of no more than 6.30 and a pKd (Axl) of no more than 6.30.
For `COc1cc2nccc(Oc3ccc(NC(=O)c4nn(CCC(F)(F)F)cc4OCC4CCC4)nc3)c2cc1OC` [Compound 166], the pKd (Mer) was greater than 7.00 and the pKd (Axl) was greater than 7.00.
For `COc1cc2nccc(Oc3ccc(NC(=O)c4nn(C5CCCC5)cc4OCC(F)(F)F)nc3)c2cc1OC` [Compound 40], the pKd (Mer) was greater than 7.00 and the pKd (Axl) was greater than 7.00.
In the case of `COCCn1cc(OCC(F)(F)F)c(C(=O)Nc2ccc(Oc3ccnc4cc(OC)c(OC)cc34)c(F)c2)n1` [Compound 54], the pKd (Mer) was greater than 7.00 and the pKd (Axl) was greater than 7.00.
Work on `COc1cc2nccc(Oc3ccc(NC(=O)c4nn(C5CCNC5)cc4OCC(F)(F)F)c(F)c3)c2cc1OC` (centres unmarked) [Compound 74] yielded a pKd (Mer) of 6.30 to 7.00 and a pKd (Axl) of 6.30 to 7.00.
With `COc1cc2nccc(Oc3ccc(NC(=O)c4nn(C5CCOC5)cc4OCC(F)(F)F)nc3)c2cc1OC` (centres unmarked) [Compound 13] the pKd (Mer) was greater than 7.00 and the pKd (Axl) was greater than 7.00.
`COc1cc2nccc(Oc3ccc(NC(=O)c4nn(CC(C)(F)F)cc4OCC(F)(F)F)nc3)c2cc1OC` [Compound 64] showed a pKd (Mer) greater than 7.00 and a pKd (Axl) greater than 7.00.
Compound `COc1cc2nccc(Oc3ccc(NC(=O)c4nn(CCNC5CC5)cc4OCC(F)(F)F)nc3)c2cc1OC` [Compound 168] has a pKd (Mer) greater than 7.00 and a pKd (Axl) greater than 7.00.
`COCCn1cc(OCC(F)(F)F)c(C(=O)Nc2ccc(Oc3ccnc4cc(OC)c(OC)cc34)cc2F)n1` [Compound 49] was tested, and the pKd (Mer) was greater than 7.00 and the pKd (Axl) was greater than 7.00.
For `CCCn1cc(OCC(F)(F)F)c(C(=O)Nc2ccc(Oc3ccnc4cc(OC)c(OC)cc34)c(F)c2)n1` [Compound 25], the pKd (Mer) was greater than 7.00 and the pKd (Axl) was greater than 7.00.
`COc1cc2nccc(Oc3ccc(NC(=O)c4nn(CC(C)O)cc4OCC(F)(F)F)nc3)c2cc1OC` (centres unmarked) [Compound 17] showed a pKd (Mer) greater than 7.00 and a pKd (Axl) greater than 7.00.
For `COc1cc2nccc(Oc3ccc(NC(=O)c4nn(CC(C)O)cc4OCC(F)F)nc3)c2cc1OC` (centres unmarked) [Compound 175], the pKd (Mer) was greater than 7.00 and the pKd (Axl) was greater than 7.00.
`COc1cc2nccc(Oc3ccc(NC(=O)c4nn(CCO)cc4OCC(F)(F)F)c(F)c3)c2cc1OC` [Compound 46] showed a pKd (Mer) greater than 7.00 and a pKd (Axl) greater than 7.00.
Compound `COc1cc2nccc(Oc3ccc(NC(=O)c4nn(CC5CC5)cc4OCC(F)(F)F)nc3)c2cc1OC` [Compound 41] has a pKd (Mer) greater than 7.00 and a pKd (Axl) greater than 7.00.
Compound `COc1cc2nccc(Oc3ccc(NC(=O)c4nn(C5CCOC5)cc4OCC(F)(F)F)cc3F)c2cc1OC` (centres unmarked) [Compound 55] has a pKd (Mer) greater than 7.00 and a pKd (Axl) greater than 7.00.
`COc1cc2nccc(Oc3ccc(NC(=O)c4nn(CCOC5CCC5)cc4OCC(F)(F)F)nc3)c2cc1OC` [Compound 65] showed a pKd (Mer) greater than 7.00 and a pKd (Axl) greater than 7.00.
With `COc1cc2nccc(Oc3ccc(NC(=O)c4nn(C5CCCC5)cc4OCC(F)(F)F)cc3C)c2cc1OC` [Compound 57] the pKd (Mer) was greater than 7.00 and the pKd (Axl) was greater than 7.00.
`COc1cc2nccc(Oc3ccc(NC(=O)c4nn(CCCO)cc4OCC(F)(F)F)nc3)c2cc1OC` [Compound 18] showed a pKd (Mer) greater than 7.00 and a pKd (Axl) greater than 7.00.
`COc1cc2nccc(Oc3ccc(NC(=O)c4nn(C[C@@H](C)O)cc4OCC(F)(F)F)nc3)c2cc1OC` [Compound 29] showed a pKd (Mer) greater than 7.00 and a pKd (Axl) greater than 7.00.
`COc1cc2nccc(Oc3ccc(NC(=O)c4nn(CC5CCOC5)cc4OCC(F)(F)F)nc3)c2cc1OC` (centres unmarked) [Compound 44] showed a pKd (Mer) greater than 7.00 and a pKd (Axl) greater than 7.00.
`CCCn1cc(OCC(F)(F)F)c(C(=O)Nc2ccc(Oc3ccnc4cc(OC)c(OC)cc34)c(C)c2)n1` [Compound 26] showed a pKd (Mer) greater than 7.00 and a pKd (Axl) greater than 7.00.
`COc1cc2nccc(Oc3ccc(NC(=O)c4nn(C)cc4OCC(F)(F)F)cc3C)c2cc1OC` [Compound 37] was tested, and the pKd (Mer) was greater than 7.00 and the pKd (Axl) was 6.30 to 7.00.
Work on `COc1cc2nccc(Oc3ccc(NC(=O)c4nn(CCO)cc4OCC(F)(F)F)cc3)c2cc1OC` [Compound 59] yielded a pKd (Mer) greater than 7.00 and a pKd (Axl) greater than 7.00.
For `CCCn1cc(N(C)CC2CCOCC2)c(C(=O)Nc2ccc(Oc3ccnc4cc(OC)c(OC)cc34)cn2)n1` [Compound 34], the pKd (Mer) was 6.30 to 7.00 and the pKd (Axl) was no more than 6.30.
Compound `COc1cc2nccc(Oc3ccc(NC(=O)c4nn(CC5CCNC5)cc4OCC(F)(F)F)nc3)c2cc1OC` (centres unmarked) [Compound 72] has a pKd (Mer) greater than 7.00 and a pKd (Axl) greater than 7.00.
Work on `COc1cc2nccc(Oc3ccc(NC(=O)c4nn(CC(C)C)cc4OCC(F)(F)F)cc3F)c2cc1OC` [Compound 53] yielded a pKd (Mer) greater than 7.00 and a pKd (Axl) greater than 7.00.
In the case of `CCCn1cc(OCCC(O)CO)c(C(=O)Nc2ccc(Oc3ccnc4cc(OC)c(OC)cc34)cn2)n1` (centres unmarked) [Compound 15], the pKd (Mer) was greater than 7.00 and the pKd (Axl) was greater than 7.00.
In the case of `COc1cc2nccc(Oc3ccc(NC(=O)c4nn(C)cc4OCC(F)(F)F)c(F)c3)c2cc1OC` [Compound 45], the pKd (Mer) was greater than 7.00 and the pKd (Axl) was greater than 7.00.
